{
  "source": "patent US20240181087A1",
  "about": "“COMPOSITION FOR CONTRAST IMAGING OF CANCER” (ASTELLAS PHARMA INC., priority 2021, published 2024)",
  "format_in_all_cases": "in vivo",
  "key": {"[1]": {"system": "mouse bladder cancer cell MB49", "assay": "near-infrared fluorescence observation of bladder after tail vein administration, MB49 bladder cancer mouse model", "method": "Two bladder cancer mouse models (weight: about 20 g), having mouse bladder cancer cell MB49 transplanted in the bladder mucosa, and then grown for 3 weeks or 4 weeks, were used. To the tail vein of each of the mice, 0.2 mL of a saline containing the compound III (concentration of the compound III: 0.075 mg/mL) was administered, and after 1 day, the mouse was subjected to laparotomy under anesthesia by subcutaneous administration of ketamine (75 mg/kg) and medetomidine (1 mg/kg), and near-infrared fluorescence observation was performed with a near-infrared fluorescence imaging device (pde-neo, manufactured by Hamamatsu Photonics K.K., excitation wavelength: 760 nm, detection wavelength: fluorescence of 800 nm or more, the same applies hereinafter) (FIG. 1, right: near-infrared fluorescence image).\nAs a comparative example, a saline containing the compound III was administered to the tail vein of a normal mouse (weight: about 20 g), and after 1 day, the mouse was subjected to laparotomy under anesthesia by subcutaneous administration of ketamine (75 mg/kg) and medetomidine (1 mg/kg), and near-infrared fluorescence observation was performed with a near-infrared fluorescence imaging device (pde-neo, manufactured by Hamamatsu Photonics K.K.) (FIG. 2).\nTwo bladder cancer model mice (weight: about 20 g), having mouse bladder cancer cell MB49 transplanted in the bladder mucosa, and then grown for 3 weeks or 4 weeks, were used. To the tail vein of each of the mice, 0.2 mL of a saline containing the compound III (concentration of the compound III: 0.075 mg/mL) was administered. One day after the administration, the mouse was subjected to laparotomy under anesthesia by subcutaneous administration of ketamine (75 mg/kg) and medetomidine (1 mg/kg), and under observation of near-infrared fluorescence with a near-infrared fluorescence imaging device (pde-neo, manufactured by Hamamatsu Photonics K.K.), a cancer tissue site emitting near-infrared fluorescence was taken out for near-infrared fluorescence observation (FIG. 5, right: near-infrared fluorescence image). […]"}, "[2]": {"system": "RenCa cell", "assay": "near-infrared fluorescence imaging of liver, liver cancer-bearing mouse (RenCa, intravenous inoculation)", "conditions": "tail vein 120 nmol/kg, after 10 minutes, laparotomy", "method": "Metastatic spontaneous renal cell carcinoma line from BALB/c mouse, RenCa cell (1×10^6 cells, purchased from CLS Cell Lines Service GmbH, Eppelheim, Germany) was intravenously inoculated into a mouse (BALB/cCrSlc, SPF, female, 7 weeks old) under anesthesia by subcutaneous administration of ketamine (75 mg/kg) and medetomidine (1 mg/kg), and the resultant mouse was bred for 18 days to cause liver cancer therein. The mouse was anesthetized by subcutaneous administration of ketamine (75 mg/kg) and medetomidine (1 mg/kg), and the compound III (120 nmol/kg weight) was administered through the tail vein. After 10 minutes, laparotomy was conducted to perform near-infrared fluorescence imaging with a near-infrared fluorescence imaging device (pde-neo, manufactured by Hamamatsu Photonics K.K.). Near-infrared fluorescence of the compound III from a liver normal tissue was strong, light emission of the compound III from a liver cancer site (framed site in the right image) was very weak, and thus, the normal site and the cancer site could be distinguished from each other depending on the light emission (FIG. 19)."}, "[3]": {"system": "human neuroblastoma cells SH-SY5Y", "assay": "near-infrared fluorescence imaging after topical administration into tumor, human neuroblastoma subcutaneous transplant model", "conditions": "SCID mouse, 0.02 to 0.1 mL of 1 mg/mL, 1 hour after administration", "method": "A human cancer cell transplant model mouse was created as follows: • (Head and neck/tongue cancer) To immunodeficient SCID mice (weight: 17 g to 23 g), about 10^6 human tongue cancer cells CAL27 (purchased from American Type Culture Collection: ATCC) were subcutaneously administered, and the resultant mice were grown for 49 days to create tumor models. • (Brain cancer/neuroblastoma) To immunodeficient SCID mice (weight: 17 g to 23 g), about 10^6 human neuroblastoma cells SH-SY5Y (purchased from ATCC) were subcutaneously administered, and the resultant mice were grown for 90 days to create tumor models. • (Brain cancer/glioblastoma) To immunodeficient SCID mice (weight: 17 g to 23 g), about 10^6 human glioblastoma cells U-251MG (obtained from European Collection of Authenticated Cell Cultures) were subcutaneously administered, and the resultant mice were grown for 90 days to create tumor models.\nSubsequently, to the tumor of each of the mouse models, 0.02 to 0.1 mL of a saline containing the compound III (concentration of the compound III: 1 mg/mL) was topically administered, and fluorescence imaging was conducted transdermally with a near-infrared fluorescence camera (Fluobeam, manufactured by Fluoptics) (excitation wavelength: 780 nm, detection wavelength: 800 nm or more)."}},
  "data": [
    {"smiles": "COC1=C(/C=C/C2=[N+](CCC(=O)NCCCO[C@H]3[C@H]4O[C@H]5[C@H](O)[C@@H](O)[C@@H](O[C@H]6[C@H](O)[C@@H](O)[C@@H](O[C@H]7[C@H](O)[C@@H](O)[C@@H](O[C@H]8[C@H](O)[C@@H](O)[C@@H](O[C@H]9[C@H](O)[C@@H](O)[C@@H](O[C@H]%10[C@H](O)[C@@H](O)[C@@H](O[C@@H]([C@@H]3O)[C@@H](CO)O4)O[C@@H]%10CO)O[C@@H]9CO)O[C@@H]8CO)O[C@@H]7CO)O[C@@H]6CO)O[C@@H]5CO)c3ccc4ccccc4c3C2(C)C)CCC/C1=C\\C=C1\\N(CCC(=O)NCCCO[C@H]2[C@H]3O[C@H]4[C@H](O)[C@@H](O)[C@@H](O[C@H]5[C@H](O)[C@@H](O)[C@@H](O[C@H]6[C@H](O)[C@@H](O)[C@@H](O[C@H]7[C@H](O)[C@@H](O)[C@@H](O[C@H]8[C@H](O)[C@@H](O)[C@@H](O[C@H]9[C@H](O)[C@@H](O)[C@@H](O[C@@H]([C@@H]2O)[C@@H](CO)O3)O[C@@H]9CO)O[C@@H]8CO)O[C@@H]7CO)O[C@@H]6CO)O[C@@H]5CO)O[C@@H]4CO)c2ccc3ccccc3c2C1(C)C.[Cl-]", "note": "[compound III, 3-(3-{[3-(cyclomaltoheptaose-21-O-yl)propyl]amino}-3-oxopropyl)-2-{(1E)-2-[(3E)-3-{(2E)-2-[3-(3-{[3-(cyclomaltoheptaose-21-O-yl)propyl]amino}-3-oxopropyl)-1,1-dimethyl-1,3-dihydro-2H-benzo[e]indol-2-ylidene]ethylidene}-2-methoxycyclohexa-1-en-1-yl]ethene-1-yl}-1,1-dimethyl-1H-benzo[e]indol-3-ium chloride]", "values": [
      {"measurement": "excision of tumor tissue with fluorescence emitted from the cancer tissue used as a guide", "setting": "[1]; MB49 bladder cancer mouse model, 0.2 mL saline 0.075 mg/mL, 1 day after administration", "value": "could be appropriately excised"},
      {"measurement": "near-infrared fluorescence in cancer tissue of the bladder", "setting": "[1]; MB49 bladder cancer mouse model, 0.2 mL saline 0.075 mg/mL, after 1 day, laparotomy", "value": "specifically observed"},
      {"measurement": "near-infrared fluorescence of normal tissue (bladder)", "setting": "[1]; normal mouse, after 1 day, laparotomy", "value": "did not emit near-infrared fluorescence"},
      {"measurement": "light emission from liver cancer site", "setting": "[2]", "value": "very weak"},
      {"measurement": "near-infrared fluorescence from liver normal tissue", "setting": "[2]", "value": "strong"},
      {"measurement": "retention inside the tumor (fluorescence imaging)", "setting": "[3]", "value": "retained inside the tumor"}
    ]}
  ]
}
